{
  "source": "patent US20220225651A1",
  "about": "“STEVIOL GLYCOSIDE AND FERULIC ACID FORMULATIONS FOR FOOD AND BEVERAGES” (Sweegen, Inc., priority 2021, published 2022)",
  "origin": "cited, not measured here",
  "conditions": "sweetness relative to sucrose",
  "data": [
    {"compound": "C=C1C[C@@]23CC[C@H]4[C@@](C)(CCC[C@@]4(C)C(=O)O[C@@H]4O[C@H](CO)[C@@H](O)[C@H](O)[C@H]4O)[C@@H]2CC[C@]1(O[C@@H]1O[C@H](CO)[C@@H](O)[C@H](O)[C@H]1O[C@@H]1O[C@@H](C)[C@H](O)[C@@H](O)[C@H]1O)C3", "note": "[Dulcoside A]", "values": [
      {"measurement": "times sweeter than sucrose", "value": "about 30 times"}
    ]},
    {"compound": "C=C1C[C@@]23CC[C@H]4[C@@](C)(CCC[C@@]4(C)C(=O)O[C@@H]4O[C@H](CO)[C@@H](O)[C@H](O)[C@H]4O)[C@@H]2CC[C@]1(O[C@@H]1O[C@H](CO)[C@@H](O)[C@H](O)[C@H]1O[C@@H]1O[C@H](CO)[C@@H](O)[C@H](O)[C@H]1O)C3", "note": "[stevioside]", "values": [
      {"measurement": "times sweeter than sucrose", "value": "100-150 times"}
    ]},
    {"compound": "Rebaudioside C", "values": [
      {"measurement": "times sweeter than sucrose", "value": "40-60 times"}
    ]}
  ]
}
